This note sets out measurements from a melting point compilation (Tetko et al.; mined from patent text by program, amines drawn as free bases though some values may be those of a salt).

Starred links: 1 amine or outer side, 2 acyl side, 3 side chain; linkers in the order of their positions; H or OH if unused. Residues, ends and D or L forms follow the SMILES beside them. Suc = O=C(CCC(=O)[*:2])[*:1]

As usually defined, the melting point is the temperature, or range, at which the solid turns liquid.

For `CC1(C)CN=C(NCC2CCCc3ccc(S(=O)(=O)c4ccccc4)cc32)NC1` (configuration not stated), the melting point was 140 to 145 °C.
Then `CCc1cc(CCCOc2c(C)cc(-c3noc(C)n3)cc2C)on1`, with 85 to 86 °C; and `C[C@@H]1C(=O)C=CN2c3ccccc3CC[C@@H]12` (relative stereo), with 148 to 150 °C; and `COc1ccc(C)cc1NC(=O)Nc1ccc(N2CCN(C(=O)Nc3ccc(OCCO)cc3Cl)CC2)c(F)c1`, with 118 to 120 °C.
Then `Cn1c(-c2ccccc2F)n[nH]c1=S`, with 137 to 139 °C.
Then `CC(=O)N1CCc2cc(Br)cc(C#N)c21`, with 170 to 175 °C.
As to `Cc1oc(-c2ccccc2)nc1CCC(N)=S`, the melting point is 167 to 168 °C.
Consider `COc1ccc(C(=O)c2cc3c(c(Cl)c2Cl)OC(C(=O)O)C3)cc1` (configuration not stated), for which the melting point stood at 187 °C.
The compound `COc1cc(-c2nc(NC(=O)c3c(C)c4cc(C)ccc4n3CC(=O)O)sc2CCC2CCCCC2)c(OC)cc1Cl` yielded a melting point of 151 to 160 °C.
Then `Cc1cc(-c2ccc(S(C)(=O)=O)cc2)n(-c2ccc(F)cc2)c1F`, with 109 to 110 °C.
Then `Cn1c(=O)c2c(NN)nccc2n(C)c1=O`, with 244 °C; and `N#Cc1cccc(C2C=C(C(F)(F)F)NC3=C2C(=O)CCC3)c1` (configuration not stated), with 182 to 183 °C; and `c1ccc(N2CCN(Cc3ccc4ccccc4c3)CC2)nc1`, with 124 to 126 °C.
Then `C=CCOc1ccc(Br)cc1C(C)=NO`, with 110 to 111 °C; and `NCC1N=C(c2ccccc2F)c2ccccc2NC1=O` (racemic), with 168 to 169 °C; and `CN(CCCCCCCCC(=O)O)c1cnc(-c2ccccc2)c(-c2ccccc2)n1`, with 103 to 105 °C.
Compound `CCOC(=O)C(NC(=O)OC(C)(C)C)c1csc(NC(=O)CCl)n1` (configuration not stated) had a melting point of 192 to 193 °C.
Then `N=C(N)Nc1nc(C(=O)Nc2cccc(C(=O)NC(CC(=O)O)c3ccccc3)c2)cs1` (racemic), with 235 °C.
`c1ccc(-c2nc(CSc3nc4cccc5c4n3CCC5)cs2)cc1` gave a melting point of 116 to 118 °C.
Then `S=c1n(N=Cc2ccccc2)ccn1N=Cc1ccccc1`, with 215 to 218 °C; and `CCc1ccc(Cc2c(OCc3ccccc3)n[nH]c2C)cc1`, with 80 to 83 °C.
Then `COC(=O)c1nc2nc(C(C)C)cc(O)n2n1`, with 198 to 201 °C.
Then `Fc1cccc(F)c1-c1nc2c(s1)NCCCC2`, with 143 to 144 °C.
Compound `CC1(C)C(=O)NC(=O)c2c1ccc1nc(Nc3c(Cl)cccc3Cl)sc21` displayed a melting point greater than 300 °C.
Then `O=c1cc(-c2ccc(CO)cc2)oc2ncccc12`, with 218 to 219 °C.
Compound `CCNC(=O)C1CCCN1C(=O)C(C)NC(=O)CCC(=O)O` (stereo not drawn) (Suc-Ala-Pro-NHEt; configuration not given here) displayed a melting point of 139 to 141 °C.
Then `O=c1oc(-c2cc(C(F)(F)F)cc(C(F)(F)F)c2)ns1`, with 61 to 62.5 °C; and `Cn1nnnc1SCCCC(=O)c1ccc(C(=O)O)o1`, with 154 to 157 °C; and `Cc1nc(Cc2ccc(NC(=O)/C=C/c3cnn(C)c3-c3ccc(F)cc3)cc2)cs1`, with 192 to 193 °C.
Then `CN(C)OC(=O)C(C)(c1ccc(OCc2ccc3ccccc3n2)cc1)C1CCCCC1` (configuration not stated), with 98 to 99 °C; and `Cc1oc(-c2ccccc2)nc1COc1ccc(CCCCc2nnn[nH]2)cn1`, with 104 to 105 °C.
Then `N#Cc1nn(-c2c(Cl)cc(C(F)(F)F)cc2Cl)c(Cl)c1C1CC1(Br)Br` (configuration not stated), with 104 °C.
Compound `CC(C)c1ccc2ncc(C(=O)O)c(O)c2c1` came in with a melting point of 298 °C.
Then `C=C(C)C(=O)NC(=O)Nc1ccccc1`, with 165 to 166 °C; and `Cc1nnc(-c2nsc3ccc([N+](=O)[O-])cc23)o1`, with greater than 250 °C.
Then `COc1ccc(-c2ccc3c(c2)C=C(C(=O)Nc2ccc(CN(C)C4CCOCC4)cc2)CCS3(=O)=O)cc1`, with 247 to 249 °C; and `CCCN1C(=O)N(CCC)C(=O)C2(CC=C3C(CCC4=Cc5c(cnn5-c5ccc(F)cc5)CC43C)O2)C1=O` (configuration not stated), with 81 to 82 °C; and `CCCCNC(=O)c1nc2ccc(OC)cc2[nH]1`, with 125 to 126 °C.
Then `Oc1ccc(Oc2ccccc2F)cc1`, with 81.5 to 82 °C.
The compound `O=C1NCC2(CCNCC2)O1` returned a melting point of 95 to 96 °C.
As for `C=CC(=O)N1C/C(=C\c2ccc([N+](=O)[O-])cc2)C(=O)/C(=C/c2ccc([N+](=O)[O-])cc2)C1`, the melting point was in the range of 170 to 172 °C.
Then `CN1CCN(Cc2ccc(NC(=O)c3cccc4cc(Oc5ccnc(NC(=O)C6CC6)c5)ccc34)cc2C(F)(F)F)CC1`, with 218 to 220 °C; and `CCCCN(CCCC)Cc1nc(-c2ncn3c2CN(C)C(=O)c2cc(F)ccc2-3)no1`, with 137 to 140 °C.
Compound `COc1cc([C@@H](O)[C@@H](C)N2CCC(O)(c3ccccc3)CC2)ccc1O` (relative stereo) came in with a melting point of 188 °C.
Then `Fc1cccc(NCc2nnc(-c3ccc4c(c3)CCO4)o2)c1`, with 166 to 167 °C.
Then `COc1ccc(N2CCN(C(N)=O)C2=O)cc1OC`, with 240 °C; and `Cn1cc(S(=O)(=O)Cl)c(=O)c2ccc(C(F)(F)F)cc21`, with 262 to 265 °C.
Then `CCCCCCCc1ccc2cc(-c3ncc(CC)cn3)ccc2c1`, with 62.3 to 63.1 °C; and `Cc1cc2ccccc2nc1Sc1ccc2c(c1)CC[C@H]1N(C)C(=O)CC[C@]21C`, with 185 to 193 °C; and `CC(=O)C1CCC2C3CCC4CC(O)C(N5CC(C)OC(C)C5)CC4(C)C3C(=O)CC12C` (configuration not stated), with 172 to 174 °C.
`CC(=O)OC(n1cc(C#N)c(-c2cccc(Cl)c2Cl)c1)C(Cl)(Cl)Cl` (configuration not stated) registered a melting point of 111 to 113 °C.
Then `O=C(c1ccccc1)[C@]1([N+](=O)[O-])[C@H](c2ccccc2)[C@H]2C[C@H](O)[C@@H]1C2` (relative stereo), with 168 to 169 °C; and `COc1ccc(OC2OC(COCc3ccccc3)C(OCc3ccccc3)C(O)C2OCc2ccccc2)cc1` (configuration not stated), with 84 to 86 °C; and `COc1ccc(-n2nc(OCC(F)(F)F)nc2-c2ccc(OC)nc2)cc1`, with 82 to 83 °C.
Then `CCN(CC)c1nc(C)[nH]c2c(-c3ccc(Cl)cc3Cl)nc(C)c1-2`, with 146 to 148 °C.
Then `N#Cc1ncccc1Oc1ccccc1Cl`, with 90 to 92 °C.
`COc1cc(C2CCN(C(=O)C3CCN3)CC2)ccc1Nc1ncc2ccc(-c3ccccc3N(C)S(C)(=O)=O)n2n1` (configuration not stated) returned a melting point of 111 to 116 °C.
Then `CC(C)(CO)Cc1cccc(C(O)c2cccc(CC(C)(C)CO)c2)c1`, with 98 to 99 °C; and `CC1(c2cn(-c3c(Cl)cc(C(F)(F)F)cc3Cl)nc2C#N)CC1(Br)Br` (configuration not stated), with 133 to 134 °C.
Then `CC(C)(CO)CCCCN1C(=O)c2ccccc2C1=O`, with 74.8 to 75 °C; and `CC(C)NC(=O)c1cccc(I)c1C(=O)Nc1ccc(OCC(F)(F)F)nc1`, with 200 to 203 °C; and `COc1ccc(C=CC(=O)Nc2ccc(C)cc2C(=O)O)cc1OC`, with 190 to 191 °C.
In turn, `O=C1NC(=Cc2ccccc2F)C(=O)N1c1cc(F)ccc1F` had a melting point of 180 to 183 °C.
Then `CCOC(=O)c1ccccc1C=C(C)C=CC=C(C)CCC=C(C)C`, with 47 to 48 °C; and `Oc1ccc(-c2ccc3c(-c4ccccc4)c(O)ccc3c2)cc1`, with 142 to 146 °C.
`CONC(=O)c1cc(OC)cc(Oc2cccc(C(F)(F)F)c2)n1` had a melting point of 91 to 92 °C.
Then `Cc1cc(CO)ccc1NC(=O)N1CCN(c2ccc(NC(=O)Nc3ccccc3F)cc2)CC1`, with 229 to 230 °C; and `CC(C)OC(=O)c1cc(-n2c(=O)[nH]c3c(c2=O)CCC3)c(F)cc1Cl`, with 204 to 207 °C.
With `COCOCc1ccc(C2Cn3cc(C(=O)NCc4ccc(Cl)cc4)c(=O)c4cc(CN5CCOCC5)cc(c43)O2)cc1` (configuration not stated), the melting point lay in the range of 236 to 239 °C.
Then `Cc1noc(NS(=O)(=O)c2cccc3c(N(C)C)cccc23)c1Br`, with 87 to 89 °C; and `COc1ccc(S(=O)(=O)C(CCCCc2ccccc2)C(=O)O)cc1OC` (configuration not stated), with 114 to 116 °C.
Then `CNC(=O)Cc1ccccc1[N+](=O)[O-]`, with 147 °C; and `O=C(Nc1cccc(O)c1)C(F)(F)F`, with 133 to 135 °C; and `N#CCCNC(=O)C1=CC(CF)(CF)Oc2cc(Cl)c(Cl)cc21`, with 135 to 136 °C.
For `O=C1NC[C@@H](c2ccccc2)O1`, the melting point fell in the range of 86 to 87 °C.
Then `O=C(O)COc1cc2c(-c3ccccc3)csc2c(Cl)c1Cl`, with 152 to 154 °C; and `Cc1cc(-c2nc3cc(OCCOC(C)C)cc(OCCOC(C)C)c3c(=O)[nH]2)cc(C)n1`, with 124 to 125 °C.
Then `CNc1cccc([N+](=O)[O-])c1C#N`, with 203 to 206 °C; and `CC(=O)OC1CCC2CCC3C(CCC4(C)C(O)C(N5CCCCC5)CC34)C2(C)C1` (configuration not stated), with 162 to 166 °C; and `O=C(Nc1ccc2c(c1)OC(F)(F)O2)NC12CC3CC(CC(C3)C1)C2`, with 213 to 215 °C.
As for `COC(=O)C[C@H](CC(=O)O[Si](C)(C)C(C)(C)C)O[Si](C)(C)C(C)(C)C`, the melting point lay within 44 to 46 °C.
Then `Cc1cc(=O)[nH]c2ccc(Cn3ccnc3)cc12`, with 266 °C; and `Cc1cc(-c2cc(C(F)(F)F)n3ncc(-c4ccccn4)c3n2)ccc1Cl`, with 183 °C.
Then `Nc1c(Br)cc(Br)cc1S(=O)(=O)C(F)F`, with 84 to 88 °C.
Then `CCCCCCCC1=CC(=O)N(c2ccccc2)C1(O)CBr` (configuration not stated), with 152 to 154 °C.
For the compound `CCOC(=O)/C(=N\OC(C)(CC)C(=O)OC(C)(C)C)c1csc(NC(c2ccccc2)(c2ccccc2)c2ccccc2)n1` (configuration not stated), the melting point fell in the range of 122 to 125 °C.
Then `CCNc1ncn(CC)c2nc(C3CC3)nc1-2`, with 103 to 105 °C.
